# “Also recorded” adds a separate entry of the source.
# How the values were obtained:
# normal skin = test: pigmentogenic properties on normal skin; type: in vivo, human; conditions: 0.5%
# From the text: The pigmentogenic properties of products 1a and 1b have been tested on normal skin at a concentration of 0.5%.
# DNA [1] = test: thermal denaturation-renaturation of DNA modified in the presence of UVA; type: biochemical
# From the text: Experiments of thermal denaturation-renaturation carried out on the DNA Modified by the compound 1a in the presence of UVA (incident dose ranging up to 27 Kj/m2) yielding values of the non-renaturating fraction of 100%.
# yeast mutant pso2 = test: sensitivity of yeast mutant pso2 versus wild type to photo-addition
# [2] = system: V79 chinese hamster cells; test: antiproliferatory effect: inhibition of colony formation of V79 cells; type: cell-based; conditions: 5×10^-6 M
# Protocol: The photobiological activity of the two monofunctional componds 1a and 1b have been studied in mammalian cells in vitro in order to determine their antiproliferatory effect.
# A diploid strain of V79 chinese hamster cells were used.
# The action of the compounds on cell survival (i.e. the antiproliferatory effect) was determined by measuring their power to inhibit the capacity of cells to form colonies. The technique used is that described by C.
# synthesis of DNA = test: photosensitizer effect on DNA synthesis in human fibroblasts; type: cell-based; conditions: UVA 365 nm
# From the text: (§1) (F. Bordin, F. Baccichetti and L. Musajo, Experientia 28, 148 (1972)).
# (§2) The cells cultivated in Petri dishes having a minimum Eagle medium with 10% embryonic calf serum were marked by precursors which were specific to the exponential phase of growth. The rates of synthesis were estimated by measuring the incorporation of the radioactive precursors in the acid-precipitable material (see S. Nocentini, Biochim. Biophys., Acta 521, 160 (1978)).
# DNA [3] = test: complexation with DNA by absorption and emission spectroscopy; type: binding
# normal human skin = test: erythema test on normal human skin (forearm); type: in vivo
# Protocol: The clinical and therapeutic activity of compounds 1a and 1b has been also measured on human skin. 10 mg of compounds 1a and 1b were diluted in 2 g of a purified lanolin commercially available under the name ROC hydrocerine which was made liquid by heating to 60° C. This local preparation was first tested on normal human skin (of the forearm). An amount of 10 micrograms/cm2 of products 1a and 1b was applied to a circular cutaneous surface 3 cm in diameter. The two products were left on the skin for 2 hours to insure a sufficient cutaneous penetration. […] The same experiment was repeated a second time with irradiation of 20 J/cm2 through a glass plate in order to filter out all the ultraviolet B radiation. […] This erythema, slightly apparent, continued for 18 days. […] The […] result of the reflective photoplethysmograph were totally identical for products 1a and 1b. […] The […] only appeared in doses of irradiation where are twice that customarily used in a therapeutic treatment.
# [4] = mutagenicity (general statements)
# mitochondrial DNA = test: induction of "small colony" cytoplasmic mutations; type: cell-based, Saccharomyces cerevisiae; conditions: in 10% of the survivors
# Protocol: (§3) This photobiological activity has in effect been defined by the induction of lethal effects, the induction of "small colony" cytoplasmic mutations (damage in the mitochondrial DNA) and the induction of nuclear mutations (reverse and forward). The experiments were conducted in the customary manner in conformity with the following references:
# If the induction of cytoplasmic mutations is considered as a function of the survivors, the compounds 1a and 1b which are monofunctional derivatives of psoralen, show in 10% of the survivors a rate of induction of cytoplasmic mutation greater than 50%.
# [5] = system: Saccharomyces cerevisiae yeast; test: induction of lethal effects in yeast with 365 nm irradiation (UVA); type: cell-based
# Protocol: as §3
# Thus, the dose of UVA must be between 2.5 and 5 times weaker in the case of compounds 1a and 1b than in the case of 8-MOP to attain the same survival rate.
# [6] = spectroscopic absorption properties; type: physicochemical; conditions: compared with psoralen
# From the text: Compounds 1a and 1b have similar spectroscopic properties which differ markedly with respect to those of psoralen.
# [7] = photochemical stability under ultraviolet irradiation; type: physicochemical; conditions: free in solution, ultraviolet irradiation up to an incident dose of 27 kJ/m2
# [8] = system: Saccharomyces cerevisiae yeast; test: induction of forward mutations (resistance to canavanine); type: cell-based
# Protocol: as §3, with “references: […]” for “references:”
# DNA [9] = test: formation of cross-links in DNA (general statements); type: biochemical; conditions: from induction of cytoplasmic and nuclear mutations
# DNA [10] = test: photoaffinity for DNA in vivo; type: cell-based, yeast
# [11] = system: DNA of cells of the wild type; test: direct biochemical verification of cross-linking in DNA of cells treated and irradiated at 365 nm; type: cell-based, yeast
# From the text: Indeed, DNA of cells of the wild type were extracted immediately after treatment with products 1a, 1b at a concentration of 10^-5 M and irradiation with two doses of radiation at 365 nm (30% and 5% survival rate). […] If the DNA contains cross-links it renatures itself and is found in the double chain form separable by gradient density from single chain DNA.
# synthesis of RNA = test: photosensitizer effect on RNA synthesis in human fibroblasts; type: cell-based; conditions: UVA 365 nm
# From the text: as §1, §2
# [12] = system: haploid strain of Saccharomyces cerevisiae yeast; test: induction of nuclear mutations: His+ reversions; type: cell-based; conditions: 5×10^-6 M, same survivor rate
# Protocol: as §3
# The induction of nuclear mutations (reversions and "forward" mutations) has been determined according to procedures described in the above-mentioned articles.
# psoriatic plaque = test: therapeutic test on psoriatic plaque, products 1a and 1b; type: in vivo, human
# Protocol: 10 mg of compounds 1a and 1b were diluted in 2 g of a purified lanolin commercially available under the name ROC hydrocerine which was made liquid by heating to 60° C. Products 1a and 1b have also been tested in the same excipient on a high inflammatory psoriatic plaque. These two products were applied to surfaces having a 3 cm diameter. On a third surface the excipient alone was applied. […] The products and the lanolin alone were applied 2 hours before irradiation. […] This whitening was practically as fast in the zones treated with products 1a and 1b. The zone treated with lanolin alone remained unchanged.
# [13] = 10 micrograms/cm2, UVA 20 J/cm2
# [14] = 30 micrograms/cm2, by the tenth treatment
# [15] = 30 micrograms/cm2, from the fourth treatment
smiles,measurement,setting,value
"O=c1oc2cc3occc3cc2c2ccncc12 [Compound 1a, Pyrido (3,4-c) furo (3,2-g) coumarin]","pigmentogenic properties, 1b versus 1a",normal skin,pigmentogenic
same,pigmentation of normal skin,"normal skin; three normal patients, total UVA doses of 140 J/cm2","very slight pigmentation, hardly visible, in only two of the three patients"
same,induction of biadditions on the DNA,DNA [1],cannot induce biadditions on the DNA
same,non-renaturating fraction,DNA [1]; UVA incident dose ranging up to 27 kJ/m2,100%
same,photoreactivity on yeast strains,yeast mutant pso2,very photoreactive
same,sensitivity of pso2 mutant compared with wild type,yeast mutant pso2; photo-addition,same sensitivity as the wild type
same,LD10 (dose which leaves 10% survive),[2]; UVA,1800 J/cm2
same,considerable photosensitivity in V79 cells,[2]; UVA,considerable photosensitivity
same,relative antiproliferatory effect,[2]; UVA,"compared to 8-MOP, a higher antiproliferatory effect; also recorded: comparable to that of bifunctional furocoumarins"
same,diminution of cell survival in absence of radiation,[2]; no radiation,no diminution of cell survival
same,inhibition capacity (DNA) compared with 3-CPs,synthesis of DNA,much more than 3-CPs
same,inhibition capacity (DNA) compared with 8-MOP,synthesis of DNA,slightly more powerful than 8-MOP
same,complexation with DNA,DNA [3],considerable complexation
same,solubility in the DNA relative to mixture of alcohol and water,DNA [3],at least 10 factor
same,erythema at 5 J/cm2,"normal human skin; 10 micrograms/cm2, 2 hours before UVA 5 J/cm2",no precocious or delayed erythema was observed
same,duration of erythema,normal human skin; [13],18 days
same,time of appearance of erythema,normal human skin; [13],72 h
same,erythema at 20 J/cm2,"normal human skin; 10 micrograms/cm2, UVA 20 J/cm2 through glass plate",slight erythema
same,desquamation or local pain,normal human skin; UVA 20 J/cm2,no desquamation or local pain
same,systolic pulse of the capillaries at erythematic zones (reflective photoplethysmography),normal human skin; UVA 20 J/cm2,doubling of the systolic pulse
same,erythematogenicity (conclusion),normal human skin; in vivo,not erythmatogenic in conditions of irradiation customarily used in human therapy; also recorded: very mildly erythmatogenic
same,mutagenicity compared with 3-carbethoxypsoralen (conclusion),[4],less mutagenic than 3-carbethoxypsoralen
same,rate of induction of cytoplasmic mutation,mitochondrial DNA,greater than 50%
same,"photoreactivity compared with 4,5',8-trimethylpsoralen (conclusion)",[5],"close to that of 4,5'-8-trimethylpsoralen"
same,induction of lethal effects compared with 8-MOP,"[5]; 5×10^-5 M, 365 nm (UVA)",activity close to that of 8-methoxypsoralen
same,activity on cell survival relative to 8-MOP,"[5]; 5×10^-6 M, survival curves",2.5 times
same,photodynamic activity (oxygen dependent) on induction of lethal damages,[5]; yeast,do not exert on the yeast photodynamic activity
same,coefficient of molecular absorption at 365 nm,[6],notably a higher coefficient of molecular absorption at 365 nm
same,photochemical stability,[7],good photochemical stability
same,"forward mutations as a function of surviving fractions compared with 3-CPs, 8-MOP and 4,5',8-TMeP",[8],"markedly less mutagenic than 3-CPs and the bifunctional compounds 8-MOP and 4,5', 8-TMeP"
same,forward mutations as a function of UVA doses compared with 3-CPs,[8]; 5×10^-6 M versus 3-CPs at 5×10^-5 M,comparable to those obtained with 3-CPs at 5×10^-5 M
same,formation of cross-links in the DNA (conclusion),DNA [9],incapable of forming cross-links in the DNA
same,photoaffinity for DNA in vivo compared with 3-CPs,DNA [10],makedly much high than that of monofunctional furocoumarin 3-CPs
same,photoaffinity for DNA in vivo relative to 8-MOP,DNA [10],about 10 times
same,photoaffinity in respect to DNA compared with 8-MOP (conclusion),DNA [10],markedly greater than that of 8-MOP
same,form of DNA after renaturation (cross-links),"[11]; 10^-5 M, 365 nm, two doses (30% and 5% survival rate)",remains in single chain form after renaturation
same,functional type (mono/bifunctional),[11]; pso2 mutant and direct examination of DNA,mono functional type
same,inhibition capacity (RNA) compared with 3-CPs,synthesis of RNA,much more than 3-CPs
same,inhibition capacity (RNA) compared with 8-MOP,synthesis of RNA,slightly more powerful than 8-MOP
same,His+ reversions rate compared with 3-CPs,[12],less than that observed after the treatment with 3-CPs
same,"His+ reversions rate compared with 8-MOP and 4,5',8-TMeP",[12],"very much less than that observed after treatment with the bifunctional agents 8-MOP and 4,5', 8-TMeP"
same,"antipsoriatic action, third patient",psoriatic plaque; 30 μg/cm2 two hours before UVA,did not have a detectable antipsoriatic action
same,erythema or secondary effect during treatments,psoriatic plaque; 30 micrograms/cm2,no erythema or secondary effect was observed
same,hyperpigmentation,psoriatic plaque; 30 micrograms/cm2,hyperpigmentation was found
same,total UVA dose to complete whitening,psoriatic plaque; [14],50 J/cm2
same,whitening of treated zones,psoriatic plaque; [14],complete whitening of the zones treated
same,decrease of squamae,psoriatic plaque; [15],slight decrease of the squamae
same,reduction of infiltration,psoriatic plaque; [15],tangible reduction of the infiltration
same,antipsoriatic activity (conclusion),psoriatic plaque; applied locally,good antipsoriatic activity

# Reference: patent US4464354A, “(3,4-c)-Pyrido psoralens, process of preparation, application in cosmetology and therapeutics, and cosmetological and pharmaceutical composition with them” (Institut National de la Sante et de la Recherche Medicale, priority 1982, dated 1984)
